# Data: patent US20050222178A1, “Process” (priority 2002, published 2005)
# Assay: relative stability of the polymorphic forms of Compound A
# Format: physicochemical
"stability relative to the other polymorph (at ambient temperatures, for example 15-20° C.)","stability relative to the other polymorph (at elevated temperatures, for example temperatures in excess of 70° C.)",Compound
enhanced stability over Polymorph II,–,"CC(C)(C)c1nnc([C@H]2O[C@@H](n3cnc4c(Nc5ccc(Cl)cc5F)ncnc43)[C@H](O)[C@@H]2O)o1 [Polymorph I, (2S,3S,4R,5R)-2-(5-tert-butyl-[1,3,4]-oxadiazol-2-yl)-5-[6-(4-chloro-2-fluorophenylamino)-9H-purin-9-yl]-tetrahydrofuran-3,4-diol]"
–,enhanced stability over Polymorph I,"CC(C)(C)c1nnc([C@H]2O[C@@H](n3cnc4c(Nc5ccc(Cl)cc5F)ncnc43)[C@H](O)[C@@H]2O)o1 [Polymorph II, (2S,3S,4R,5R)-2-(5-tert-butyl-[1,3,4]-oxadiazol-2-yl)-5-[6-(4-chloro-2-fluorophenylamino)-9H-purin-9-yl]-tetrahydrofuran-3,4-diol]"
